Data published in publication PMC7584622, “Sensing of autoinducer-2 by functionally distinct receptors in prokaryotes” (Nature Communications, 2020).
pKd: −log10 of the molar value. Several values for one entry are separate records, joined by “and”; a condition that tells them apart may be missing. Identical values can stand only once.

How the values were obtained:
rpHK1S-Z16-LBD = rpHK1S-Z16-LBD (Rhodopseudomonas palustris, UniProt Q6N3S7); assay: ITC binding to rpHK1S-Z16-LBD; design: species or system R. palustris; conditions: 700 μM DPD/AI-2 into 70 μM rpHK1S-Z16-LBD
PctA-LBD Y101A = molecular target: T1, PctA-LBD Y101A (Pseudomonas aeruginosa, UniProt G3XD24, Y101A); assay: biochemical; format: binding; conditions: PctA-LBD Y101A 70 μM; DPD/AI-2 700 μM
T1 construct: Amino acids 30-278 and 36-360 of PctA and TlpQ, respectively; His6 (N, cleaved yes); made in house; host or cells: E. coli BL21(DE3) (pET-28a derivative)

PctA-LBD Y121A = molecular target: T2, PctA-LBD Y121A (Pseudomonas aeruginosa, UniProt G3XD24, Y121A); assay: biochemical; format: binding; conditions: PctA-LBD Y121A 70 μM; DPD/AI-2 700 μM
T2 construct: Amino acids 30-278 and 36-360 of PctA and TlpQ, respectively; His6 (N, cleaved yes); made in house; host or cells: E. coli BL21(DE3) (pET-28a derivative)

PctA-LBD D146A = molecular target: T3, PctA-LBD D146A (Pseudomonas aeruginosa, UniProt G3XD24, D146A); assay: biochemical; format: binding; conditions: PctA-LBD D146A 70 μM; DPD/AI-2 700 μM
T3 construct: Amino acids 30-278 and 36-360 of PctA and TlpQ, respectively; His6 (N, cleaved yes); made in house; host or cells: E. coli BL21(DE3) (pET-28a derivative)

PctA-LBD A147F = molecular target: T4, PctA-LBD A147F (Pseudomonas aeruginosa, UniProt G3XD24, A147F); assay: biochemical; format: binding; conditions: PctA-LBD A147F 70 μM; DPD/AI-2 700 μM
T4 construct: Amino acids 30-278 and 36-360 of PctA and TlpQ, respectively; His6 (N, cleaved yes); made in house; host or cells: E. coli BL21(DE3) (pET-28a derivative)

PctA-LBD D173A = molecular target: T5, PctA-LBD D173A (Pseudomonas aeruginosa, UniProt G3XD24, D173A); assay: biochemical; format: binding; conditions: PctA-LBD D173A 70 μM; DPD/AI-2 700 μM
T5 construct: Amino acids 30-278 and 36-360 of PctA and TlpQ, respectively; His6 (N, cleaved yes); made in house; host or cells: E. coli BL21(DE3) (pET-28a derivative)

PctA = molecular target: T6, PctA (Pseudomonas aeruginosa, UniProt G3XD24); assay: in vitro methylation of PctA by CheR1 (LC-MS/MS); format: biochemical, P. aeruginosa; conditions: for Methylation level (%) of PctA at E381: CheR1, 10 μM SAM, 1 h, 30 °C; for Methylation level (%) of PctA, Fig. S5a / Methylation level (%) of PctA, Fig. S5b: site not given (Supplementary Fig. 5: E395 and E614)
T6 construct: the membrane fractions containing full-length PctA, KinD or rpHK1S-Z16 were collected; made in house; host or cells: E. coli HCB721 (pHSe5), membrane fractions
Protocol: The reaction was initiated by adding 10 μM SAM and the reaction was allowed to proceed for another 1 h at 30 °C. […] A control experiment was performed with no addition of SAM to check the initial methylation state of PctA. The reaction was stopped by adding 2× SDS-PAGE loading buffer. The reaction products were resolved by SDS-PAGE and stained with Coomassie brilliant blue. The gel bands corresponding to PctA were excised and used for detection and quantification of methylation by nano-LC-MS/MS.
Gel slices excised from SDS-PAGE gels were destained with three washes in 100 μl of 100 mM ammonium bicarbonate in 50% acetonitrile at 37 °C for 15 min. Destained gel pieces were dried in a SpeedVac (Thermo Fisher Scientific) for 15 min. 10 mM DTT in 25 mM ammonium bicarbonate was added to cover the gel pieces and incubated at 56 °C for 1 h. After cooling to room temperature, the supernatant was replaced by 55 mM iodoacetamide in 25 mM ammonium bicarbonate followed by 1 h incubation at room temperature in darkness. Gel slices were washed with 100 μl of 25 mM ammonium bicarbonate for 10 min, and then shrunk in acetonitrile for 10 min. Acetonitrile was removed and the gel slices were dried in a SpeedVac. The dried gel slices were swollen with 20 μl of 12.5 ng µl^−1 Pierce^TM trypsin protease (MS-grade; Thermo Fisher Scientific) in 50 mM ammonium bicarbonate at 4 °C for 1 h. An additional 30 μl of 50 mM ammonium bicarbonate was supplemented, followed by overnight incubation at 37 °C. After digestion, supernatants were transferred to a new tube, and remaining peptides were extracted from the gel slices with 50 μl of 0.1% trifluoroacetic acid at 37 °C for 30 min. Combined extracts for each gel slice were dried in a SpeedVac. The dried peptide samples were resolubilized in 0.1% formic acid and analyzed in C18 reversed-phase column connected to an EASY-nLC 1000 interfaced via a Nanospray Flex ion source to an Orbitrap Fusion Tribrid mass spectrometer (Thermo Fisher Scientific). The LC mobile phase consisted of 0.1% formic acid (v/v) in water (A) and 0.1% formic acid in acetonitrile (B). […] A data-dependent Top 20 method was used with precursor MS1 scan (m/z 350–1550) acquired in the Orbitrap at a resolution of 120,000, followed by Orbitrap HCD-MS/MS and OTHCD-MS/MS of the 20 most abundant multiply charged precursors in the MS1 spectrum. MS2 spectra were acquired at a resolution of 30,000. Methylation on glutamic acid residues of PctA and phosphorylation on histidine residues of KinD were set as variable modifications. Protein identification and quantification were performed using Mascot Daemon version 2.5.1 (Matrix Science, Boston, USA) considering the specific modifications.

KinD = molecular target: T7, KinD (Bacillus subtilis, UniProt O31671); assay: in vitro kinase assay, KinD autophosphorylation (LC-MS/MS); format: biochemical, B. subtilis; conditions: 100 μM ATP, 30 min, 30 °C
T7 construct: The genes encoding full-length KinD and rpHK1S-Z16 were cloned with a C-terminal His6 tag into pHSe5; made in house; host or cells: E. coli BL21(DE3) ΔluxS (pHSe5), membrane fractions
Protocol: Twenty micrograms of membrane fractions containing KinD was preincubated in a 50-μl reaction system containing 50 mM Tris-HCl (pH 7.8), 2 mM DTT, 25 mM NaCl, 25 mM KCl, 5 mM MgCl2 for 10 min at 30 °C. […] A control experiment was performed without ATP to check the initial phosphorylation state of KinD. After 30 min incubation at 30 °C, products were resolved by SDS-PAGE, and the gel bands corresponding to KinD were excised and used for detection and quantification of phosphorylation by nano-LC-MS/MS.
Gel slices excised from SDS-PAGE gels were destained with three washes in 100 μl of 100 mM ammonium bicarbonate in 50% acetonitrile at 37 °C for 15 min. Destained gel pieces were dried in a SpeedVac (Thermo Fisher Scientific) for 15 min. 10 mM DTT in 25 mM ammonium bicarbonate was added to cover the gel pieces and incubated at 56 °C for 1 h. […] The dried peptide samples were resolubilized in 0.1% formic acid and analyzed in C18 reversed-phase column connected to an EASY-nLC 1000 interfaced via a Nanospray Flex ion source to an Orbitrap Fusion Tribrid mass spectrometer (Thermo Fisher Scientific). […] Protein identification and quantification were performed using Mascot Daemon version 2.5.1 (Matrix Science, Boston, USA) considering the specific modifications.

P. aeruginosa PAO1 [1] = assay: crystal violet quantification of biofilm formation; conditions: 100 nM DPD/AI-2, 37 °C, 48 h
Protocol: Biofilms were stained with crystal violet and quantified using optical density measurement after incubation at 37 °C for 48 h. Data are mean ± s.e.m. of five independent experiments. b Quantification of biofilm formation by P. aeruginosa strains from confocal imaging. […] Images were reconstructed using the Imaris 9.0 software package (Bitplane, AG) (Supplementary Fig. 6) and biofilm biovolumes were quantified using COMSTAT (www.comstat.dk). Biovolumes were calculated from three biological replicates and each biological replicate was derived from an average of five confocal images.
For crystal violet quantification of biofilm formation, overnight cultures of relevant strains of P. aeruginosa were diluted with TSB medium to an OD600 of 0.05, and 190 μl aliquots of the diluted cells were inoculated into each well of a 96-well microtiter plate (cat# 220400, Zhejiang Sorfa Life Science Research Co., Ltd., China). […] After incubation at 37 °C for 48 h without shaking, culture supernatant was removed and the wells were washed twice with phosphate-buffered saline (PBS). Cells adhering to the wells were stained with 0.1% (w/v) crystal violet for 15 min and then washed three times with PBS. The bacteria-bound dye was dissolved in 200 μl of 95% ethanol and the absorbance was determined at 590 nm.

P. aeruginosa PAO1 [2] = assay: confocal laser-scanning microscopy of static biofilms (biovolume, COMSTAT); conditions: 100 nM DPD/AI-2
Protocol: Biofilms were stained with crystal violet and quantified using optical density measurement after incubation at 37 °C for 48 h. […] Images were reconstructed using the Imaris 9.0 software package (Bitplane, AG) (Supplementary Fig. 6) and biofilm biovolumes were quantified using COMSTAT (www.comstat.dk). Biovolumes were calculated from three biological replicates and each biological replicate was derived from an average of five confocal images.
For confocal laser-scanning microscopy and image analysis of static biofilms, overnight cultures of P. aeruginosa strains carrying pME6032-mCherry were diluted with TSB medium to an OD600 of 0.01 (~2 × 10^7 CFU ml^−1). […] The cultures were incubated at 37 °C under static conditions and biofilms were visualized using a Revolution XD laser-scanning confocal microscope (Andor, Belfast, Northern Ireland) after 1, 10, and 19 h. The excitation/emission wavelength for mCherry was 568/590 nm. Images were reconstructed using the Imaris 9.0 software package (Bitplane, AG) and the biovolumes were calculated using COMSTAT 2.1[46] plugin in ImageJ software (version 1.48). Biovolumes were measured and calculated from three biological replicates and each biological replicate was derived from an average of five confocal images.

T6 sequence (G3XD24 whole entry): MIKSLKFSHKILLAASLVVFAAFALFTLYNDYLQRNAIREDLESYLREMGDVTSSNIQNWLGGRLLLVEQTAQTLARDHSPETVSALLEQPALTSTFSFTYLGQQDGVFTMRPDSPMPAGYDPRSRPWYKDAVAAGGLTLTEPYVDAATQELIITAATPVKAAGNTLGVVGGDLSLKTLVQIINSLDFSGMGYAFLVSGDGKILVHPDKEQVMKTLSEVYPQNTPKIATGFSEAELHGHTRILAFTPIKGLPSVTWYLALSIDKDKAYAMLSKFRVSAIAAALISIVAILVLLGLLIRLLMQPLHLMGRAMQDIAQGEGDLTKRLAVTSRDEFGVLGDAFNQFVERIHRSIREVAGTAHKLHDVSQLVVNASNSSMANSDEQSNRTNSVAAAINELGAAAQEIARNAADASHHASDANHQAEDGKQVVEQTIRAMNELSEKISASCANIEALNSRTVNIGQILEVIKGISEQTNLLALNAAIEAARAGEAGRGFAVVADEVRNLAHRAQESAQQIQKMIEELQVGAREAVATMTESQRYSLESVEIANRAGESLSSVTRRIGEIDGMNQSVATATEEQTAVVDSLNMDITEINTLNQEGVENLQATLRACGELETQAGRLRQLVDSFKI
T4 sequence (G3XD24 30-278 A147F): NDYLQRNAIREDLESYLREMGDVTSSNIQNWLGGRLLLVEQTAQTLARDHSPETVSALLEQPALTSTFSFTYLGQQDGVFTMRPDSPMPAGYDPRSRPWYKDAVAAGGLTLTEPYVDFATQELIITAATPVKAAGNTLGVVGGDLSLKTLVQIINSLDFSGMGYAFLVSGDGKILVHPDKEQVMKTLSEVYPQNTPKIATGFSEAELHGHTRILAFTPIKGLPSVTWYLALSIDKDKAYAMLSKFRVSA
T2 sequence (G3XD24 30-278 Y121A): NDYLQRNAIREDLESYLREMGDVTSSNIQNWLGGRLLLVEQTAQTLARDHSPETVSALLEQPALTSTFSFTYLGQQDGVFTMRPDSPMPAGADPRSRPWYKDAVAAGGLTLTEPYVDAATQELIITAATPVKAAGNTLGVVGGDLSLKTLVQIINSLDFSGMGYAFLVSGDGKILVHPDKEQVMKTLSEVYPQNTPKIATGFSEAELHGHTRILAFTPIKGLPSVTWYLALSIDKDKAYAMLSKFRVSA
T3 sequence (G3XD24 30-278 D146A): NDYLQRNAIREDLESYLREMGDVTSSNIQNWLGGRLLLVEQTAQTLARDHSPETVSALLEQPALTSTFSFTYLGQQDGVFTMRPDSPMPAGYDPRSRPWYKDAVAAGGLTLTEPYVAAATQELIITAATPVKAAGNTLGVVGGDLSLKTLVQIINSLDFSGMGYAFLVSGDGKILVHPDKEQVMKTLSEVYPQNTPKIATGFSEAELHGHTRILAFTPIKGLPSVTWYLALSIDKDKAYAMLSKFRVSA
T5 sequence (G3XD24 30-278 D173A): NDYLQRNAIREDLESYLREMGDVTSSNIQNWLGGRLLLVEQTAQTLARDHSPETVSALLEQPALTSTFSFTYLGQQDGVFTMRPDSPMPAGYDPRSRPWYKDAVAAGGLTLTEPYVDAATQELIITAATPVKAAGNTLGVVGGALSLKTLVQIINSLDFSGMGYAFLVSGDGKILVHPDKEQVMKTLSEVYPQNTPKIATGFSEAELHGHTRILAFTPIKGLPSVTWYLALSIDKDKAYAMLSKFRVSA
Chain of rpHK1S-Z16-LBD (Q6N3S7 entry or part of it): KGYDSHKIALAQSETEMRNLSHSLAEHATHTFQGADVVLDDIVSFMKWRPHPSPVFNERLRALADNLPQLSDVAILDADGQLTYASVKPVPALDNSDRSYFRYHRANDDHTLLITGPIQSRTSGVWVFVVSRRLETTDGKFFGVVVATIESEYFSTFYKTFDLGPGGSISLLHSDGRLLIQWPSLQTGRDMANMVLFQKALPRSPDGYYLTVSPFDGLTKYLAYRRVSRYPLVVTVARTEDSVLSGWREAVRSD
T1 sequence (G3XD24 30-278 Y101A): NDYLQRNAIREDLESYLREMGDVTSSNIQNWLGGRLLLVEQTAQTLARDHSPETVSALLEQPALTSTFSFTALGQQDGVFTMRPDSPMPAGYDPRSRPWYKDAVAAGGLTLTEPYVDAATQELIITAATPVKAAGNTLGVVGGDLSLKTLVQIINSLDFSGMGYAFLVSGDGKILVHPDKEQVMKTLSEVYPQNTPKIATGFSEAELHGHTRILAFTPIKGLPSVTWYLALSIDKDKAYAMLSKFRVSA
T7 sequence (O31671 whole entry): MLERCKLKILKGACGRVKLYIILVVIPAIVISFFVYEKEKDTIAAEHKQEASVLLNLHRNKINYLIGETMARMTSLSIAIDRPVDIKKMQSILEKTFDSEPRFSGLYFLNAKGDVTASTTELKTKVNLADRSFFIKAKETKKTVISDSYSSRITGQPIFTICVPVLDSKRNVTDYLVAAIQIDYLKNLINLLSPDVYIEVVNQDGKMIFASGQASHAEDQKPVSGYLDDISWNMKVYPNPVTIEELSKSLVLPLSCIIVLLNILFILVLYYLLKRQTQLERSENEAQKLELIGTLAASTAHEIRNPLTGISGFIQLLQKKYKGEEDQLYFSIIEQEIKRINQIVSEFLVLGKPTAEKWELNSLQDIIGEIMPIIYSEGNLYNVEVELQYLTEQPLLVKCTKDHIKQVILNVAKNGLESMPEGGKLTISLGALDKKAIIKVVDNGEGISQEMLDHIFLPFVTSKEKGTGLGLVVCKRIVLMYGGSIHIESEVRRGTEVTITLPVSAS

SMILES: CC(=O)C(=O)C(O)CO (stereo not drawn) [DPD/AI-2, 4,5-dihydroxy-2,3-pentanedione]
- pKd (rpHK1S-Z16-LBD): 6.89 and 6.72 and 6.68
- pKd (PctA-LBD Y101A): 4.48 and 4.38 and 4.47
- pKd (PctA-LBD Y121A): 4.64 and 4.66 and 4.72
- pKd (PctA-LBD D146A): 4.41 and 4.52 and 4.51
- pKd (PctA-LBD A147F): 4.96 and 5.00 and 4.92
- pKd (PctA-LBD D173A): 4.92 and 4.85 and 4.89 and 5.00
- Methylation level (%) of PctA at E381 (PctA; 100 μM DPD/AI-2): 47.62% and 40.00%
- Methylation level (%) of PctA, Fig. S5a (PctA; 100 μM DPD/AI-2): 41.67% and 36.36% and 40.00%
- Methylation level (%) of PctA, Fig. S5b (PctA; 100 μM DPD/AI-2): 2.78% and 2.86% and 2.41%
- Methylation level (%) of PctA at E381 (PctA; 500 μM DPD/AI-2): 66.67% and 55.56% and 63.16%
- Methylation level (%) of PctA, Fig. S5a (PctA; 500 μM DPD/AI-2): 39.22% and 37.21% and 34.21%
- Methylation level (%) of PctA, Fig. S5b (PctA; 500 μM DPD/AI-2): 2.27% and 2.63%
- Phosphorylation level (%) of KinD (KinD; 10 μM DPD/AI-2): 27.45% and 24.59% and 21.92% and 23.68%
- Phosphorylation level (%) of KinD (KinD; 50 μM DPD/AI-2): 49.23% and 54.72% and 52.70% and 57.14%
- OD590 (crystal violet biofilm) (P. aeruginosa PAO1 [1]; strain WT(Vector)): 3.71 and 3.92 and 4.21 and 4.32 and 4.12
- OD590 (crystal violet biofilm) (P. aeruginosa PAO1 [1]; strain ΔpctA(Vector)): 2.92 and 3.14 and 3.21 and 2.99 and 3.31
- OD590 (crystal violet biofilm) (P. aeruginosa PAO1 [1]; strain ΔpctAΔtlpQ(Vector)): 2.53 and 2.64 and 2.49 and 2.62 and 2.12
- OD590 (crystal violet biofilm) (P. aeruginosa PAO1 [1]; strain ΔpctAΔtlpQ(pctA)): 3.05 and 3.43 and 3.56 and 3.32 and 3.18
- OD590 (crystal violet biofilm) (P. aeruginosa PAO1 [1]; strain ΔpctAΔtlpQ(pctB)): 2.31 and 2.73 and 2.24 and 2.53 and 2.77
- OD590 (crystal violet biofilm) (P. aeruginosa PAO1 [1]; strain ΔpctAΔtlpQ(tlpQ)): 3.41 and 3.66 and 3.44 and 3.21 and 3.40
- OD590 (crystal violet biofilm) (P. aeruginosa PAO1 [1]; strain ΔtlpQ(Vector)): 3.21 and 3.31 and 3.58 and 3.67 and 3.42
- Biovolume of P. aeruginosa (P. aeruginosa PAO1 [2]; WT, 1 h): 28364 μm3 mm-2 and 23058 μm3 mm-2 and 27608 μm3 mm-2
- Biovolume of P. aeruginosa (P. aeruginosa PAO1 [2]; WT, 10 h): 1281908 μm3 mm-2 and 1109100 μm3 mm-2 and 1052160 μm3 mm-2
- Biovolume of P. aeruginosa (P. aeruginosa PAO1 [2]; WT, 19 h): 3128446 μm3 mm-2 and 3141281 μm3 mm-2 and 3321156 μm3 mm-2
- Biovolume of P. aeruginosa (P. aeruginosa PAO1 [2]; ΔpctA, 1 h): 25418 μm3 mm-2 and 25743 μm3 mm-2 and 24604 μm3 mm-2
- Biovolume of P. aeruginosa (P. aeruginosa PAO1 [2]; ΔpctA, 10 h): 609991 μm3 mm-2 and 657748 μm3 mm-2 and 721040 μm3 mm-2
- Biovolume of P. aeruginosa (P. aeruginosa PAO1 [2]; ΔpctA, 19 h): 1305959 μm3 mm-2 and 1192157 μm3 mm-2 and 1109432 μm3 mm-2
- Biovolume of P. aeruginosa (P. aeruginosa PAO1 [2]; ΔpctAΔtlpQ, 1 h): 24520 μm3 mm-2 and 23099 μm3 mm-2 and 23881 μm3 mm-2
- Biovolume of P. aeruginosa (P. aeruginosa PAO1 [2]; ΔpctAΔtlpQ, 10 h): 372013 μm3 mm-2 and 288390 μm3 mm-2 and 355734 μm3 mm-2
- Biovolume of P. aeruginosa (P. aeruginosa PAO1 [2]; ΔpctAΔtlpQ, 19 h): 111554 μm3 mm-2 and 108961 μm3 mm-2 and 114758 μm3 mm-2
- Biovolume of P. aeruginosa (P. aeruginosa PAO1 [2]; ΔtlpQ, 1 h): 22029 μm3 mm-2 and 31306 μm3 mm-2 and 26285 μm3 mm-2
- Biovolume of P. aeruginosa (P. aeruginosa PAO1 [2]; ΔtlpQ, 10 h): 645081 μm3 mm-2 and 690688 μm3 mm-2 and 715157 μm3 mm-2
- Biovolume of P. aeruginosa (P. aeruginosa PAO1 [2]; ΔtlpQ, 19 h): 1292148 μm3 mm-2 and 1288991 μm3 mm-2 and 1359959 μm3 mm-2
